The record followed here is patent US4374144A, “β-Lactam compounds, their preparation and use” (Beecham Group Limited, priority 1978, dated 1983).

Where two headings read alike, the source gives them in different places.

One experiment deals with E. coli 0111. The experiment can be described thus: MIC, DST agar + 10% horse blood. The experiment is classed as cell-based. As to conditions: Escherichia coli. As for the experimental part: (§1) The minimum inhibitory concentrations (MIC) of certain compounds of the invention were determined against a range of organisms.
(§2) of 0.001 ml of a 10^-2 dilution for Grampositive bacteria or a
(§3) 10^-4 dilution for Gramnegative bacteria).

In a further experiment the test system is Shigella sonnei MB11967. Nature of the experiment: MIC, DST agar + 10% horse blood. The experiment is classed as cell-based. As for the experimental part:
as §1, §2, §3

Experiment [1] deals with Salmonella typhimurium CT10. The experiment can be described thus: MIC, DST agar + 10% horse blood. The experiment is classed as cell-based. As to conditions: Salmonella enterica. As for the experimental part: as §1, §2, §3
Experiment [2] deals with Streptococcus pyogenes CN10. The experiment can be described thus: MIC, DST agar + 10% horse blood. The experiment is classed as cell-based. As for the experimental part: as §1, §2, §3
The next experiment relates to Staph. aureus Oxford. The experiment can be described thus: MIC, DST agar + 10% horse blood. The experiment is classed as cell-based. As to conditions: Staphylococcus aureus. The protocol:
as §1, §2, §3

The next experiment has as its system Bacillus subtilis A. Nature of the experiment: MIC, DST agar + 10% horse blood. The experiment is classed as cell-based. The protocol: as §1, §2, §3
A further experiment deals with Klebsiella aerogenes A. Nature of the experiment: MIC, DST agar + 10% horse blood. The experiment is classed as cell-based. The protocol:
as §1, §2, §3

In another experiment the test system is Citrobacter freundii E8. The experiment can be described thus: MIC, DST agar + 10% horse blood. The experiment is classed as cell-based. The protocol: as §1, §2, §3
In a further experiment the test system is Staph. aureus Russell. The experiment can be described thus: MIC, DST agar + 10% horse blood. The experiment is classed as cell-based. As to conditions: Staphylococcus aureus. As for the experimental part: as §1, §2, §3
Another experiment concerns Proteus mirabilis C977. The experiment can be described thus: MIC, DST agar + 10% horse blood. The experiment is classed as cell-based. The protocol: as §1, §2, §3
The subject of a further experiment is E. coli JT39. The experiment can be described thus: MIC, DST agar + 10% horse blood. As to conditions: Escherichia coli. The experiment is classed as cell-based. The protocol:
as §1, §2, §3

Experiment [3] concerns the target T1, β-Lactamase from E. coli JT4 (Escherichia coli, UniProt P62593).
T1 construct: β-Lactamase from; endogenous in cells; host or cells: E. coli JT4
The experiment can be described thus: β-Lactamase inhibition, chromogenic cephalosporin substrate. The experiment is classed as biochemical. As to conditions: 5 min preincubation, pH 7.3, 37° C., read-out: I50 (converted). The protocol: (§4) I50 values for certain compounds of the invention against various β-lactamases were determined as follows:
(§5) Enzyme (0.2 ml) and inhibitor solution (10 μl) were incubated at pH 7.3, 37° C. for 5 minutes. Substrate (0.2 ml), which was the chromogenic cephalosporin described by O'Callaghan, Morris, Kirby and Shingler, Antimicrobial Agents and Chemotherapy, vol. 1, no. […] After a further five minutes (37° C. at pH 7.3) the reaction was diluted with 1.6 ml of water and absorbance at 482 nm recorded instantly. […] Levels of inhibition were measured against a control reaction with no added inhibitor (10 μl buffer).

For experiment [4], the target named is β-Lactamase from Klebsiella aerogenes E70. Described as above. As to conditions: 5 min preincubation, pH 7.3, 37° C. The experiment is classed as biochemical. The protocol:
as §4, §5

Experiment [5] deals with T2, β-Lactamase from Enterobacter cloacae P99 (Enterobacter cloacae, UniProt P05364).
T2 construct: β-Lactamase from; endogenous in cells; host or cells: Enterobacter cloacae P99
Described as above. The experiment is classed as biochemical. As to conditions: 5 min preincubation, pH 7.3, 37° C., read-out: I50 (converted). As for the experimental part: as §4
(§6) Enzyme (0.2 ml) and inhibitor solution (10 μl) were incubated at pH 7.3, 37° C. for 5 minutes. Substrate (0.2 ml), which was the chromogenic cephalosporin described by O'Callaghan, Morris, Kirby and Shingler, Antimicrobial Agents and Chemotherapy, vol. 1, no. 4, 283-288 (1972), was added to give a final concentration of 250 μg/ml. After a further five minutes (37° C. at pH 7.3) the reaction was diluted with 1.6 ml of water and absorbance at 482 nm recorded instantly. The enzyme level was sufficient to hydrolyse 75% of the substrate in 5 minutes. Levels of inhibition were measured against a control reaction with no added inhibitor (10 μl buffer). I50 values quoted are the concentrations required to give 50% inhibition of substrate hydrolysis under the conditions described and are the concentrations of inhibitor present with the enzyme prior to the addition of the substrate.

The target of experiment [6] is T3, β-Lactamase from Staphylococcus aureus Russell (Staphylococcus aureus, UniProt P00807).
T3 construct: β-Lactamase from; endogenous in cells; host or cells: Staphylococcus aureus Russell
The experiment is described as above. The experiment is classed as biochemical. As to conditions: 5 min preincubation, pH 7.3, 37° C., read-out: I50 (converted). The protocol: as §4, §6

Where [7] appears, read: E. coli 0111, inoculum 0.001 ml of 10^-4 dilution, read-out: MIC.
The mark [8] stands for this setting: Shigella sonnei MB11967, inoculum 0.001 ml of 10^-4 dilution, read-out: MIC.
Where [9] appears, read: Salmonella typhimurium CT10, inoculum 0.001 ml of 10^-4 dilution, read-out: MIC.
The mark [10] stands for this setting: Streptococcus pyogenes CN10, inoculum 0.001 ml of 10^-2 dilution, read-out: MIC.
Where [11] appears, read: Staph. aureus Oxford, inoculum 0.001 ml of 10^-2 dilution, read-out: MIC.
[12] abbreviates: Klebsiella aerogenes A, inoculum 0.001 ml of 10^-4 dilution, read-out: MIC.
The mark [13] stands for this setting: Citrobacter freundii E8, inoculum 0.001 ml of 10^-4 dilution, read-out: MIC.
[14] abbreviates: Staph. aureus Russell, inoculum 0.001 ml of 10^-2 dilution, read-out: MIC.
Where [15] appears, read: Proteus mirabilis C977, inoculum 0.001 ml of 10^-4 dilution, read-out: MIC.
The mark [16] stands for this setting: E. coli JT39, inoculum 0.001 ml of 10^-4 dilution, read-out: MIC.

T3 sequence (P00807 25-281): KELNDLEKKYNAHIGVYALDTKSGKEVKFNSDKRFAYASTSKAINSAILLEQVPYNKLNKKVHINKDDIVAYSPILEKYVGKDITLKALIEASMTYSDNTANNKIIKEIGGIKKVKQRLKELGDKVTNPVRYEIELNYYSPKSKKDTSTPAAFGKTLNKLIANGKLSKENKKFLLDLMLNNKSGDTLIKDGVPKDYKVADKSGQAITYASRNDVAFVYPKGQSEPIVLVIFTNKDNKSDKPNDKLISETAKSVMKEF
T2 sequence (P05364 21-381): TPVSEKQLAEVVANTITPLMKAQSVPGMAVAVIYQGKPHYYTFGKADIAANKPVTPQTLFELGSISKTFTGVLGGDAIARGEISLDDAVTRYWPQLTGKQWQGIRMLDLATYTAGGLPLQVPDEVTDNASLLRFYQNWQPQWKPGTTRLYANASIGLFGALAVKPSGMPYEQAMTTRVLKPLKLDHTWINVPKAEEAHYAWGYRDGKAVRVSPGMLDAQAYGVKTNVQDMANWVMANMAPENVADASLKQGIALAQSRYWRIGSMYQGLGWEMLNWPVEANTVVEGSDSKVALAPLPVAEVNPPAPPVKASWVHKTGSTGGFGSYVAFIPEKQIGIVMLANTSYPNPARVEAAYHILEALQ
T1 sequence (P62593 24-286 limits assumed): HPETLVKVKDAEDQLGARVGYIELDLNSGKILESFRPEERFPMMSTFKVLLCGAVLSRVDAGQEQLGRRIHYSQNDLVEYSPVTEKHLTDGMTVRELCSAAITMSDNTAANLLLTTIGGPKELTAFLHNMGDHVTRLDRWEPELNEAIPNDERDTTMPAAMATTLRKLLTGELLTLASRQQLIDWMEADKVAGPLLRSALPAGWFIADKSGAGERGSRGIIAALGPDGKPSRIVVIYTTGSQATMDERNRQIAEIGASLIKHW

Broadly, the MIC is the smallest concentration in the dilution series that meets the test's criterion for growth inhibition. On to `CC(=O)N/C=C\SC1=C(C(=O)[O-])N2C(=O)[C@H]([C@H](C)O)[C@H]2C1.[Na+]`, for which the MIC in the experiment on E. coli 0111 (0111) amounted to 5 µg/mL; with Shigella sonnei MB11967 (Shigella sonnei, MB11967), 10 µg/mL; in [1] (TYPHIMURIUM) it was 5 µg/mL; in experiment [2] (Streptococcus pyogenes, CN10), 0.5 µg/mL; in the experiment on Staph. aureus Oxford it was 0.5 µg/mL; in the experiment on Bacillus subtilis A (Bacillus subtilis) it was 5 µg/mL. In addition, the MIC in the experiment on Klebsiella aerogenes A (Klebsiella aerogenes) stood at 5 µg/mL; with Citrobacter freundii E8 (Citrobacter freundii, E8), 2.5 µg/mL; in the experiment on Staph. aureus Russell, 0.5 µg/mL; with Proteus mirabilis C977 (Proteus mirabilis, C977), 25 µg/mL; with E. coli JT39 (JT39) it was 10 µg/mL. Further, the values for the IC50 in experiment [3], in experiment [5] and in [6] were 150 nM, 17.9 nM and roughly 8970 nM, respectively. The same molecule showed an I50 in [4] of 0.1 µg/mL.
In the case of `CC(=O)N/C=C\SC1=C(C(=O)OCc2ccc([N+](=O)[O-])cc2)N2C(=O)[C@H]([C@H](C)O)[C@H]2C1` [Example 2, p-Nitrobenzyl (5R, 6S)-3-[(Z)-2-acetamidoethenylthio]-6-[(S)-1-hydroxyethyl]-7-oxo-1-azabicyclo[3.2.0]hept-2-ene-2-carboxylate], the MIC in the experiment on E. coli 0111 (setting [7]) is 2.5 µg/mL; with Shigella sonnei MB11967 (setting [8]), 2.5 µg/mL; in experiment [1] (setting [9]) it was 2.5 µg/mL; in [2] (setting [10]) it was no more than 0.1 µg/mL; in the experiment with Staph. aureus Oxford (setting [11]) it was 0.5 µg/mL; in the experiment on Bacillus subtilis A (Bacillus subtilis), 0.5 µg/mL. The MIC is 2.5 µg/mL in the experiment on Klebsiella aerogenes A (setting [12]); 5 µg/mL with Citrobacter freundii E8 (setting [13]); 1.2 µg/mL in the experiment with Staph. aureus Russell (setting [14]); 5 µg/mL in the experiment on Proteus mirabilis C977 (setting [15]); greater than 50 µg/mL in the experiment on E. coli JT39 (setting [16]).
On to `CC(=O)N/C=C\SC1=C(C(=O)[O-])N2C(=O)[C@@H]([C@H](C)O)[C@H]2C1.[Na+]` [Example 5, Sodium (5R, 6R)-3-[(Z)-2-acetamidoethenylthio]-6-[(S)-1-hydroxyethyl]-7-oxo-1-azabicyclo[3.2.0]hept-2-ene-2-carboxylate], for which the MIC with E. coli 0111 (setting [7]) was 1 µg/mL; with Shigella sonnei MB11967 (setting [8]), 1 µg/mL; in [1] (TYPHIMURIUM), 1 µg/mL; in [2] (Streptococcus pyogenes, CN10) it was no more than 0.02 µg/mL; with Staph. aureus Oxford it was 0.2 µg/mL; in the experiment on Bacillus subtilis A (Bacillus subtilis), 0.1 µg/mL. Besides, the MIC with Klebsiella aerogenes A (Klebsiella aerogenes) was 1 µg/mL; in the experiment on Citrobacter freundii E8 (Citrobacter freundii, E8), 1 µg/mL; in the experiment on Staph. aureus Russell it was 0.5 µg/mL; in the experiment on Proteus mirabilis C977 (Proteus mirabilis, C977) it was 1 µg/mL; in the experiment with E. coli JT39 (setting [16]) it was 10 µg/mL.
Take `CC(=O)N/C=C\SC1=C(C(=O)O)N2C(=O)[C@@H]([C@H](C)OS(=O)(=O)O)[C@H]2C1` [Example 8, Disodium (5R, 6R)-3-[(Z)-2-acetamidoethenylthio]-6-[(S)-1-sulphatoethyl]-7-oxo-1-azabcicyclo[3.2.0]hept-2-ene-2-carboxylate]: the MIC in the experiment with E. coli 0111 (setting [7]) came to 1.2 µg/mL; with Shigella sonnei MB11967 (setting [8]), 1.2 µg/mL; in experiment [1] (setting [9]) it was 1.2 µg/mL; in experiment [2] (setting [10]), 0.2 µg/mL; in the experiment with Staph. aureus Oxford (setting [11]) it was 1.2 µg/mL; in the experiment on Bacillus subtilis A (Bacillus subtilis A, inoculum 0.001 ml of 10^-2 dilution, read-out: MIC) it was 1.2 µg/mL. Further, the MIC was 0.5 µg/mL in the experiment with Klebsiella aerogenes A (setting [12]); 1.2 µg/mL in the experiment on Citrobacter freundii E8 (setting [13]); 1.2 µg/mL in the experiment with Staph. aureus Russell (setting [14]); 1.2 µg/mL in the experiment on Proteus mirabilis C977 (setting [15]); 2.5 µg/mL in the experiment on E. coli JT39 (setting [16]). Further, the IC50 in experiment [5] was 7.65 nM; in experiment [6], 637 nM.
